Read-outs that look alike come from different tables or passages of the source.
Legend:
Format in all cases: cell-based
Ustilago nuda = assay: Plate medium fungicidal assay, barley loose smut U.n (Experimental Example 5); conditions: Ustilago nuda
Outline: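 Compounds in DMSO were mixed into molten PDA to give plates at 50 mg/L and 5 mg/L, then inoculated with a 4 mm mycelial plug. Colony diameter was compared with untreated plates as % inhibition = 100(dc−dt)/dc, scored on a 5-grade scale.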

Alternaria alternata = assay: Plate medium fungicidal assay, Alternaria blotch A.m (Experimental Example 5); conditions: Alternaria alternata
Outline: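 Compound dissolved in DMSO and mixed into PDA plates at 50 mg/L and 5 mg/L; 4 mm mycelial plug inoculated. Colony diameter compared with untreated plates, % mycelial growth inhibition = 100(dc−dt)/dc, converted to one of 5 grades.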

Sclerotinia sclerotiorum = assay: Plate medium fungicidal assay, Sclerotinia rot S.s (Experimental Example 5); conditions: Sclerotinia sclerotiorum
Outline: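 A 4 mm mycelial plug was placed on PDA plates containing compound at 50 mg/L and 5 mg/L, added from DMSO solution. Colony diameters were compared with untreated plates, % mycelial growth inhibition was R=100(dc−dt)/dc, and scores fell into 5 grades.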

Botritis cinerea = assay: Plate medium fungicidal assay, gray mold B.c (Experimental Example 5)
Outline: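 Compounds in DMSO were incorporated into PDA plate medium at 50 mg/L and 5 mg/L, then inoculated with 4 mm mycelial plugs of Botrytis cinerea. Colony diameter versus untreated plates gave % mycelial growth inhibition, R=100(dc−dt)/dc, scored on a 5-grade scale.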

Trichoderma sp. = assay: Plate medium assay, industrial material deteriorating microorganism, Trichoderma (Experimental Example 5); conditions: treatment at 50 mg/l, PDA plate medium, read-out: growth inhibition grade
Description: In this Experimental Example, the fungicidal effects of the inventive compounds on various phytopathogenic fungi for plants and hazardous microorganism for industrial materials were examined by the methods described below. Each inventive compound was dissolved in 2 ml of dimethyl sulfoxide. 0.6 ml of this solution was added to 60 nil of a PDA medium (potato dextrose agar medium) at about 60 degrees C., which was mixed thoroughly in a 100-ml conical flask, and poured into a dish, where it was solidified, thereby obtaining a plate medium containing the inventive compound at 50 mg/L and 5 mg/L. On the other hand, a subject microorganism previously cultured on a plate medium was cut out using a cork borer whose diameter was 4 mm, and inoculated to the test compound-containing plate medium described above. […] The growth degree of the microorganism on the test compound-containing plate medium thus observed was compared with the growth degree of the microorganism in the untreated group, and % mycelial growth inhibition was calculated by the following equation. R=100(dc-dt)/dc wherein R=% mycelial extension inhibition, dc=flora diameter in untreated plate, dt=flora diameter in treated plate. The results obtained as described above were evaluated as one of the 5 grades according to the following criteria.

[1] = plate medium, 5 mg/L, read-out: growth inhibition grade U.n
[2] = plate medium, 50 mg/L, read-out: growth inhibition grade U.n
[3] = plate medium, 5 mg/L, read-out: growth inhibition grade A.m
[4] = plate medium, 50 mg/L, read-out: growth inhibition grade A.m
[5] = plate medium, 5 mg/L, read-out: growth inhibition grade S.s
[6] = plate medium, 50 mg/L, read-out: growth inhibition grade S.s
[7] = plate medium, 5 mg/L, read-out: growth inhibition grade B.c
[8] = plate medium, 50 mg/L, read-out: growth inhibition grade B.c

Row | SMILES | inhibition at 5 µg/mL (Ustilago nuda; [1]) [%] | inhibition at 50 µg/mL (Ustilago nuda; [2]) [%] | inhibition at 5 µg/mL (Alternaria alternata; [3]) [%] | inhibition at 50 µg/mL (Alternaria alternata; [4]) [%] | inhibition at 5 µg/mL (Sclerotinia sclerotiorum; [5]) [%] | inhibition at 50 µg/mL (Sclerotinia sclerotiorum; [6]) [%] | inhibition at 5 µg/mL (Botritis cinerea; [7]) [%] | inhibition at 50 µg/mL (Botritis cinerea; [8]) [%] | inhibition at 50 µg/mL (Trichoderma sp.) [%] | inhibition at 5 µg/mL (Ustilago nuda; plate medium containing compound at 5 mg/L, read-out: Growth inhibition grade, U.n) [%] | inhibition at 50 µg/mL (Ustilago nuda; plate medium containing compound at 50 mg/L, read-out: Growth inhibition grade, U.n) [%] | inhibition at 5 µg/mL (Alternaria alternata; plate medium containing compound at 5 mg/L, read-out: Growth inhibition grade, A.m) [%] | inhibition at 50 µg/mL (Alternaria alternata; plate medium containing compound at 50 mg/L, read-out: Growth inhibition grade, A.m) [%] | inhibition at 5 µg/mL (Sclerotinia sclerotiorum; plate medium containing compound at 5 mg/L, read-out: Growth inhibition grade, S.s) [%] | inhibition at 50 µg/mL (Sclerotinia sclerotiorum; plate medium containing compound at 50 mg/L, read-out: Growth inhibition grade, S.s) [%] | inhibition at 5 µg/mL (Botritis cinerea; plate medium containing compound at 5 mg/L, read-out: Growth inhibition grade, B.c) [%] | inhibition at 50 µg/mL (Botritis cinerea; plate medium containing compound at 50 mg/L, read-out: Growth inhibition grade, B.c) [%]
1 | C[C@]1(CBr)CC[C@@H](Cc2ccccc2)[C@]1(O)Cn1cncn1 (racemic) [Compound I-602, (1RS,2SR,5SR)-2-bromomethyl-5-benzyl-2-methyl-1-(1H-1,2,4-triazol-1-ylmethyl)cyclopentanol] | 60 to 80 | > 80 | 60 to 80 | > 80 | > 80 | > 80 | 60 to 80 | > 80 | 60 to 80 |  |  |  |  |  |  |  | 
2 | C[C@]1(CCl)CC[C@@H](Cc2ccc(F)cc2)[C@]1(O)Cn1cncn1 (racemic) [Compound I-77, (1RS,2SR,5SR)-2-chloromethyl-5-(4-fluorobenzyl)-2-methyl-1-(1H-1,2,4-triazol-1-ylmethyl)cyclopentanol] | > 80 | > 80 | > 80 | > 80 | > 80 | > 80 | > 80 | > 80 | 60 to 80 | > 80 | > 80 | > 80 | > 80 | > 80 | > 80 | > 80 | > 80
